System: muscarinic receptors
Test: Functional characterization of antimuscarinic activities on smooth muscle strips
Design: species or system guinea pig
Settings: pharmacological studies in comparison with tolterodine
Protocol: Experiments are performed using methods similar to those described by Kachur et al, 1988 (R and S enantiomers of oxybutynin: Pharmacological effects in guinea pig bladder and intestine. J Pharmacol Exp Ther 247: 867-872) and Noronha-Blob and Kachur, 1991 (Enantiomers of Oxybutynin: In vitro pharmacological characterization at M1, M2 and M3 muscarinic receptors and in vivo effects on urinary bladder contraction, mydriasis and salivary secretion in guinea pigs. J Pharmacol Exp Ther 256: 562-567). Strips of tissue (approximately 10 mm long and 1.5 mm wide) are removed from the body of the urinary bladder of male guinea pigs weighing 400-600 g. […] Contractions are recorded with transducers on a polygraph.
The present series of experiments focuses on the anticholinergic actions of DES-TOLT, and RS-DES-TOLT and their metabolites. In these experiments, in order to assess the viability of each tissue and to serve as a frame of reference, contractions of each strip of tissue are recorded initially in response to exposure to tissue medium in which NaCl is replaced by KCl to yield a concentration of 137.7 mM KCl in the medium. This is followed by return to the standard medium, and then by exposures to progressively in creasing concentrations of carbachol, with separate exposures to each concentration only until the peak response has been recorded. […]

| antimuscarinic activities | Structure (SMILES) |
| --- | --- |
| potent antimuscarinic activities | CC(C)NCC[C@H](c1ccccc1)c1cc(CO)ccc1O [5-HM-DES-TOLT, R(+)-N-Isopropyl-3-(2-hydroxy-5-(hydroxymethyl)phenyl)-3-phenylpropylamine] |
| potent antimuscarinic activities | Cc1ccc(O)c([C@H](CCNC(C)C)c2ccccc2)c1 [DES-TOLT, R(+)-N-isopropyl-3-(2-hydroxy-5-methylphenyl)-3-phenylpropylamine] |

System: not listed separately
Test: Cardiac side effects: QTc interval of the EKG in anesthetized guinea pigs
Assay type: in vivo
Settings: guinea pig, intravenous infusion over 30 min
Protocol: Male guinea pigs (450-600 g) are anesthetized with freshly prepared dialurethane sodium. The jugular vein is catheterized for iv administration of test drugs and the trachea is exposed and cannulated. Subdermal electrodes are positioned for Lead II electrocardiogram recording, monitored on a Grass Polygraph recorder, set at a paper speed of 50 mm/sec. The animals are allowed to stabilize for 30 minute after completion of surgery, and three baseline EKG recordings are then made at 10-minute intervals. The animals are then given a dose of the test compound or vehicle as an intravenous infusion over 30 min. EKG recordings are used to determine QT intervals and heart rates. To compensate for variations in heart rates, QTc intervals are calculated from QT- and RR-intervals as known to those skilled in the art. Prolongation of QTc is indicative of a prolonged action potential, caused by an inhibition of the delayed rectifier potassium channel. Prolongation of QTc is the known cause of Torsades de Pointes ventricular fibrillation by drugs such as terfenadine, astemizole and terodiline (now withdrawn from the market).

| Structure (SMILES) | prolongation of the QTc-interval of the EKG |
| --- | --- |
| CC(C)N(CC[C@H](c1ccccc1)c1cc(CO)ccc1O)C(C)C [5-HM, R(+)-N,N-diisopropyl-3-(2-hydroxy-5-(hydroxymethyl)phenyl)-3-phenylpropylamine] | did not cause a prolongation of the QTc interval |
| Cc1ccc(O)c([C@H](CCNC(C)C)c2ccccc2)c1 [DES-TOLT, R(+)-N-isopropyl-3-(2-hydroxy-5-methylphenyl)-3-phenylpropylamine] | did not cause a prolongation of the QTc interval |
| CC(C)N(CCC(c1ccccc1)c1cc(CO)ccc1O)C(C)C (centres unmarked) [RS-5-HM, RS-N,N-diisopropyl-3-(2-hydroxy-5-(hydroxymethyl)phenyl)-3-phenylpropylamine] | did not cause a prolongation of the QTc interval |
| Cc1ccc(O)c(C(CCNC(C)C)c2ccccc2)c1 (centres unmarked) [RS-DES-TOLT, RS-N-Isopropyl-3-(2-hydroxy-5-methylphenyl)-3-phenylpropylamine] | did not cause a prolongation of the QTc interval |
| Cc1ccc(O)c(C(CCN(C(C)C)C(C)C)c2ccccc2)c1 (centres unmarked) [RS-TOLT, RS-N,N-diisopropyl-3-(2-hydroxy-5-methylphenyl)-3-phenylpropylamine, reference compound] | cause a prolongation of the QTc-interval |
| Cc1ccc(O)c([C@H](CCN(C(C)C)C(C)C)c2ccccc2)c1 [TOLT, R(+)-N,N-diisopropyl-3-(2-hydroxy-5-methylphenyl)-3-phenylpropylamine] | cause a prolongation of the QTc-interval |

From patent US20030027856A1, “Tolterodine metabolites” (priority 2001, published 2003)
